{
  "source": "paper PMC11876601",
  "about": "(Molecular Systems Biology, 2025)",
  "key": {"BxPC-3 cells": {"test_system": "BxPC-3 cells", "assay": "Drug combination viability screen (ATPlite, 72 h);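 on AUC: area under vehicle-normalized viability curve scaled 0 to 100 percent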;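 on Curve bottom: fraction of vehicle control viability from four-parameter log-logistic fit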", "assay_type": "cell-based, human", "design": "AUC: unit not given beside the values", "details": "for EC50: Homo sapiens, BXPC-3", "description": "Cell viability was assessed by measuring ATP levels to indicate metabolic activity.\nAfterward, small amounts were transferred to 384-well intermediate plates (Greiner Bio-One GmbH, Germany). […] For drug combination screening, 1000 to 5000 cells were seeded into 384-well plates (CulturPlate™, Perkin Elmer, MA, USA) using a Multidrop™ Combi Reagent Dispenser (Thermo Scientific, MA, USA) in 50 µl medium per well 24 h prior to drug treatment (seeding densities see Appendix Table S1). […] The final DMSO concentration in each well was 0.2%. […] Eight wells per plate without library drug served as negative controls, and sixteen wells per plate containing 5 µM Staurosporine served as positive controls. Control plates not containing any drug were used to correct for incubation effects, and data quality was assessed by calculation of Z-prime of positive and negative controls according to1 Z-prime=1−3SDpos+3SDneg/[…] where SD is the standard deviation. […] Dose–response curves from the experimental and hypothetical data were compared, and shifts in AUC were used to describe combination effects (AUC∆ = AUChypothetical − AUCexperimental). […] Only combinations with R^2 > 0.8 in both conditions were considered in the synergy analysis."}, "[1]": {"test_system": "protein expression in AsPC-1 cells", "assay": "Time-dependent protein expression analysis (1 µM GEM or 1 µM ATRi, 15 min-24 h)", "assay_type": "cell-based, human", "details": "GEM", "description": "Cell culture medium was replaced 24 h after seeding. […] For time point 0, AsPC-1 cells were treated with a vehicle and lysed immediately. The final DMSO concentration in all experiments was 0.2%.\nLC-MS/MS measurement of non-enriched, TMT-labeled peptides from temporal drug perturbation was carried out on an Orbitrap Fusion Lumos Tribrid instrument (Thermo Scientific) coupled to a micro-flow LC system built by combining a modified Vanquish pump and the autosampler of the Dionex UltiMate 3000 nano HPLC System (Thermo Scientific). Dried peptides were reconstituted in 0.1% formic acid and loaded directly onto an Acclaim PepMap 100 C18 column (2 μm particle size, 1 mm × 150 mm, Thermo Scientific) heated at 55 °C. […] Flow rates of sheath, aux, and sweep gas were kept at 32, 5, and 0, respectively. […] The cycle time between MS1 scans was 1.2 s, with a dynamic exclusion duration of 50 s.\nPeptide and protein identification and quantification of time-series raw data was performed with MaxQuant (v2.1.3.0) using the same sequence information as above, with N-terminal acetylation and oxidized methionine as variable modifications and cysteine carbamidomethylation as fixed modification. All other search parameters were set as default. The resulting proteingroups.txt file was filtered to remove potential contaminants and reversed hits. Corrected TMT reporter channel intensities were median-centered, and ratios were calculated between treatments and their respective time-point controls (Appendix Table S6). Proteins were considered conversely regulated if absolute log2 fold change > 2 by at least one drug and oppositely affected by both drugs (up/down) at 24 h."}, "PANC-1": {"test_system": "PANC-1", "assay": "cells", "design": "Viability of PDAC cell lines, ATPlite luminescence, 11-dose single-agent curve fit", "details": "Homo sapiens, PANC-1, 72 h, read-out: EC50 [nM]", "summary_of_the_method": "(§1)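 screening used cells plated at 1000 to 5000 per well one day before treatment. Final DMSO was 0.2%. Each plate held untreated negative-control wells and 5 µM staurosporine positive-control wells.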"}, "Colo-357": {"test_system": "Colo-357", "assay": "cells", "design": "Viability of PDAC cell lines, ATPlite luminescence, 11-dose single-agent curve fit", "details": "Homo sapiens, COLO357, 72 h, read-out: EC50 [nM]", "summary_of_the_method": "as §1"}, "PSN-1": {"test_system": "PSN-1", "assay": "cells", "design": "Viability of PDAC cell lines, ATPlite luminescence, 11-dose single-agent curve fit", "details": "Homo sapiens, PSN1, 72 h, read-out: EC50 [nM]", "summary_of_the_method": "as §1"}, "HuP-T4": {"test_system": "HuP-T4", "assay": "cells", "design": "Viability of PDAC cell lines, ATPlite luminescence, 11-dose single-agent curve fit", "details": "Homo sapiens, HuP-T4, 72 h, read-out: EC50 [nM]", "summary_of_the_method": "as §1"}, "HPDE": {"test_system": "HPDE", "assay": "cells", "design": "Viability of PDAC cell lines, ATPlite luminescence, 11-dose single-agent curve fit", "details": "HPDE, 72 h, read-out: EC50 [nM]", "summary_of_the_method": "as §1"}, "Capan-1": {"test_system": "Capan-1", "assay": "cells", "design": "Viability of PDAC cell lines, ATPlite luminescence, 11-dose single-agent curve fit", "details": "Homo sapiens, CAPAN-1, 72 h, read-out: EC50 [nM]", "summary_of_the_method": "as §1"}, "TAOK2": {"test_system": "TAOK2", "design": "method as in Reinecke et al. (2023)", "details": "TAOK2, 5 cell line mix lysate, Kinobeads ε, ref Reinecke et al. (2023), cited from earlier work"}, "CSNK2B": {"biological_target": "CSNK2B", "details": "5 cell line mix lysate, Kinobeads ε, ref Reinecke et al. (2023), cited from earlier work"}, "JAK1": {"test_system": "JAK1", "design": "method as in Reinecke et al. (2023)", "details": "JAK1, 5 cell line mix lysate, Kinobeads ε, ref Reinecke et al. (2023), cited from earlier work"}},
  "note": "Where two headings read alike, the source gives them in different places.",
  "data": [
    {"molecule": "Nc1ccn([C@@H]2O[C@H](CO)[C@@H](O)C2(F)F)c(=O)n1", "note": "[GEM, Gemcitabine]", "values": [
      {"measurement": "Reponse", "setting": "BxPC-3 cells; BxPC-3, R1, 41.15 nM", "result": 1061560},
      {"measurement": "Reponse", "setting": "BxPC-3 cells; BxPC-3, R1, 123.46 nM", "result": 1199800},
      {"measurement": "Reponse", "setting": "BxPC-3 cells; BxPC-3, R1, 370.37 nM", "result": 1177280},
      {"measurement": "Reponse", "setting": "BxPC-3 cells; BxPC-3, R1, 1111.11 nM", "result": 1044400},
      {"measurement": "Reponse", "setting": "BxPC-3 cells; BxPC-3, R1, 3333.33 nM", "result": 1111640},
      {"measurement": "Reponse", "setting": "BxPC-3 cells; BxPC-3, R1, 10000 nM", "result": 1115240},
      {"measurement": "Reponse", "setting": "BxPC-3 cells; BxPC-3, R2, 13.72 nM", "result": 1392120},
      {"measurement": "Reponse", "setting": "BxPC-3 cells; BxPC-3, R2, 41.15 nM", "result": 1083440},
      {"measurement": "Reponse", "setting": "BxPC-3 cells; BxPC-3, R2, 123.46 nM", "result": 1301640},
      {"measurement": "Reponse", "setting": "BxPC-3 cells; BxPC-3, R2, 370.37 nM", "result": 1316120},
      {"measurement": "Reponse", "setting": "BxPC-3 cells; BxPC-3, R2, 1111.11 nM", "result": 1172200},
      {"measurement": "Reponse", "setting": "BxPC-3 cells; BxPC-3, R2, 3333.33 nM", "result": 1101720},
      {"measurement": "Reponse", "setting": "BxPC-3 cells; BxPC-3, R2, 10000 nM", "result": 982880},
      {"measurement": "Curve bottom", "setting": "BxPC-3 cells; BxPC-3, GEM curve fit", "result": 0.26},
      {"measurement": "Curve effect size", "setting": "BxPC-3 cells; BxPC-3, GEM curve fit", "result": 0.75},
      {"measurement": "Curve slope", "setting": "BxPC-3 cells; BxPC-3, GEM curve fit", "result": 1.82},
      {"measurement": "Curve top", "setting": "BxPC-3 cells; BxPC-3, GEM curve fit", "result": 1.03},
      {"measurement": "AUC", "setting": "BxPC-3 cells; BxPC-3, GEM curve fit, in %", "result": 45.89},
      {"measurement": "EC50", "setting": "BxPC-3 cells; read-out: EC50", "result": 3.59, "unit": "nM"},
      {"measurement": "EC50", "setting": "BxPC-3 cells; read-out: pEC50 (converted)", "result": 3.55, "unit": "nM"},
      {"measurement": "Regulation_24h, CLN6 protein expression", "setting": "[1]; protein CLN6", "result": "up"},
      {"measurement": "Regulation_24h, E2F6 protein expression", "setting": "[1]; protein E2F6", "result": "up"},
      {"measurement": "Regulation_24h, HELZ2 protein expression", "setting": "[1]; protein HELZ2", "result": "up"},
      {"measurement": "Regulation_24h, PRKACA protein expression", "setting": "[1]; protein PRKACA", "result": "up"},
      {"measurement": "Regulation_24h, RASSF10 protein expression", "setting": "[1]; protein RASSF10", "result": "up"}
    ]},
    {"molecule": "CCN1CCN(Cc2ccc(Nc3ncc(F)c(-c4cc(F)c5nc(C)n(C(C)C)c5c4)n3)nc2)CC1", "note": "[Abemaciclib]", "values": [
      {"measurement": "EC50", "setting": "PANC-1", "result": 5540, "unit": "nM"},
      {"measurement": "EC50", "setting": "Colo-357", "result": 160, "unit": "nM"},
      {"measurement": "EC50", "setting": "PSN-1", "result": 151, "unit": "nM"},
      {"measurement": "EC50", "setting": "HuP-T4", "result": 7.93, "unit": "nM"},
      {"measurement": "EC50", "setting": "HPDE", "result": "> 10000", "unit": "nM"},
      {"measurement": "EC50", "setting": "Capan-1", "result": 245, "unit": "nM"}
    ]},
    {"molecule": "COc1cc(N2CCC(N3CCN(C)CC3)CC2)ccc1Nc1ncc(Cl)c(Nc2ccccc2P(C)(C)=O)n1", "note": "[Brigatinib]", "values": [
      {"measurement": "EC50", "setting": "TAOK2", "result": 3110, "unit": "nM"},
      {"measurement": "pKDapp", "setting": "TAOK2", "result": 5.74},
      {"measurement": "Kd", "setting": "TAOK2; read-out: KDapp", "result": 1830, "unit": "nM"},
      {"measurement": "Kd", "setting": "CSNK2B; read-out: KDapp", "result": 508, "unit": "nM"},
      {"measurement": "EC50", "setting": "CSNK2B", "result": 508, "unit": "nM"},
      {"measurement": "pKDapp", "setting": "CSNK2B", "result": 6.29},
      {"measurement": "EC50", "setting": "JAK1", "result": 373, "unit": "nM"},
      {"measurement": "pKDapp", "setting": "JAK1", "result": 6.86},
      {"measurement": "Kd", "setting": "JAK1; read-out: KDapp", "result": 139, "unit": "nM"}
    ]}
  ]
}
